Laboratory results reported in ChEMBL document CHEMBL6153072, “Metabolically Stable Adenylation Inhibitors of Biotin Protein Ligase as Antibacterial Agents” (J Med Chem, 2025).
In brackets after ≈: the same amount, converted by molar mass.

Columns and labels:
Assay type in all cases: functional
[1] = tested on: Mycobacterium tuberculosis; assay: Antimicrobial activity against Mycobacterium tuberculosis H37Rv harboring high over-expression of BPL by broth microdilution assay
[2] = tested on: Mycobacterium tuberculosis; assay: Antimicrobial activity against Mycobacterium tuberculosis H37Rv harboring ultra-under-expression of BPL by broth microdilution assay
[3] = tested on: Mycobacterium tuberculosis; assay: Antimicrobial activity against Mycobacterium tuberculosis H37Rv harboring medium under-expression of BPL by broth microdilution assay
[4] = tested on: Mycobacterium tuberculosis; assay: Antimicrobial activity against Mycobacterium tuberculosis H37Rv harboring medium over-expression of BPL by broth microdilution assay

SMILES | MIC50 [1] [µM] | MIC50 [2] [µM] | MIC50 [3] [µM] | MIC50 [4] [µM]
CC(CCC[C@@H]1SC[C@@H]2NC(=O)N[C@@H]21)C(=O)[N-]S(=O)(=O)NC[C@H]1O[C@@H](n2cnc3c(N)ncnc32)[C@H](O)[C@@H]1O.[Na+] (some centres undefined) | > 100 | 0.79 | 3.7 | > 100
Nc1ncnc2c1ncn2[C@@H]1O[C@H](CNS(=O)(=O)[N-]C(=O)NCCC[C@@H]2SC[C@@H]3NC(=O)N[C@@H]32)[C@@H](O)[C@H]1O.[Na+] | > 100 | 0.28 | 0.89 | > 100
Nc1ncnc2c1ncn2[C@@H]1O[C@H](CNS(=O)(=O)[N-]C(=O)CCCC[C@@H]2SC[C@@H]3NC(=O)N[C@@H]32)[C@@H](O)[C@H]1O.[Na+] | 16 | 0.047 | 0.14 | 11
Nc1cccc2c1ncn2CCCCNS(=O)(=O)NC(=O)CCCC[C@@H]1SC[C@@H]2NC(=O)N[C@@H]21 |  | 16 (≈ 8.15 µg/mL) | 18 (≈ 9.17 µg/mL) | 
